From PMC9833666, “Designing and identifying β-hairpin peptide macrocycles with antibiotic potential” (Science Advances, 2023)
Bridge positions count the residues as written; N and C are the ends. Peptide text beside a SMILES is read from it.

Tested on: Escherichia coli W3110
Type: cell-based
Conditions: for Ec W3110 MIC MH: E. coli W3110, MH medium; for Ec W3110 MIC RPMI: E. coli W3110, RPMI medium
Experimental: MICs were performed by a modifiedClinical and Laboratory Standards Institute) procedure. […] Separately, E. coli W3110 or A. baumannii AB5075 was grown overnight in 5 ml of standard MH at 37°C. Cells from these cultures were diluted to a concentration of 5 × 10^5 to 6 × 10^5 cells/ml in either standard MH, MHII, RPMI, or fetal bovine serum, and 90 μl was added to each well of the 96-well plate containing diluted peptide. Plates were wrapped twice in parafilm and incubated at 37°C for 18 to 24 hours. Wells were examined by eye against wells with no bacteria for signs of growth. MICs were reported as the minimum concentration with no observable growth. In cases where triplicate samples differed, the concentration supported by the median of the three replicates was reported.

Structure (SMILES)	Ec W3110 MIC MH [µg/mL]	Ec W3110 MIC RPMI [µg/mL]	W3110 MIC MH [µg/mL]	W3110 MIC RPMI [µg/mL]	W3110 MIC [µg/mL]
CC[C@H](C)[C@@H]1NC(=O)[C@H](CCCCN)NC(=O)[C@H](CC(C)C)NC(=O)[C@H](CCCNC(=N)N)NC(=O)CNC(=O)CNC(=O)[C@H](CCCNC(=N)N)NC(=O)[C@H](CC(N)=O)NC(=O)[C@H](CC(N)=O)NC(=O)[C@H](C(C)C)NC(=O)[C@H](CCCNC(=N)N)NC(=O)[C@H](C(C)C)NC(=O)[C@H](CCCNC(=N)N)NC(=O)[C@H](C(C)C)NC(=O)[C@@H](N)CSSC[C@@H](C(=O)O)NC(=O)[C@H](C(C)C)NC(=O)[C@H](CCC(N)=O)NC(=O)[C@H](C(C)C)NC(=O)[C@H](CO)NC1=O [SySA-83] (H-CVRVRVNNRGGRLKISVQVC-OH; disulfide 1-20; N-terminus and C-terminus assumed)	128	16	128	16	
CC(C)C[C@@H]1NC(=O)[C@H](CCCNC(=N)N)NC(=O)[C@H](CCCNC(=N)N)NC(=O)[C@H](CCCNC(=N)N)NC(=O)CNC(=O)[C@H](CC(N)=O)NC(=O)[C@H](CC(N)=O)NC(=O)[C@H](CC(C)C)NC(=O)[C@H](CCCNC(=N)N)NC(=O)[C@H](C(C)C)NC(=O)[C@H](CCCNC(=N)N)NC(=O)[C@H](CC(C)C)NC(=O)[C@@H](N)CSSC[C@@H](C(=O)O)NC(=O)[C@H](C(C)C)NC(=O)[C@H](CCC(N)=O)NC(=O)[C@H](CC(C)C)NC(=O)[C@H](CO)NC(=O)[C@H](C(C)C)NC(=O)[C@H](CCCCN)NC1=O [SySA-71] (H-CLRVRLNNGRRRLKVSLQVC-OH; disulfide 1-20; N-terminus and C-terminus assumed)	16	32	16	32	
CC[C@H](C)[C@@H]1NC(=O)[C@H](CCCNC(=N)N)NC(=O)[C@H](CC(C)C)NC(=O)CNC(=O)[C@H](CCCNC(=N)N)NC(=O)[C@H](CCCNC(=N)N)NC(=O)[C@H](CCCNC(=N)N)NC(=O)[C@H](CC(N)=O)NC(=O)[C@H](CC(N)=O)NC(=O)[C@H](CC(C)C)NC(=O)[C@H](CCCNC(=N)N)NC(=O)[C@H]([C@@H](C)CC)NC(=O)[C@H](CCCNC(=N)N)NC(=O)[C@H](CC(C)C)NC(=O)[C@@H](N)CSSC[C@@H](C(=O)O)NC(=O)[C@H](C(C)C)NC(=O)[C@H](CCC(N)=O)NC(=O)[C@H](CC(C)C)NC(=O)[C@H](CO)NC1=O [SySA-72] (H-CLRIRLNNRRRGLRISLQVC-OH; disulfide 1-20; N-terminus and C-terminus assumed)	32	8	32	8	
CC[C@H](C)[C@@H]1NC(=O)[C@H](CCCCN)NC(=O)[C@H](CC(C)C)NC(=O)CNC(=O)[C@H](CCCNC(=N)N)NC(=O)[C@H](CCCNC(=N)N)NC(=O)[C@H](CCCNC(=N)N)NC(=O)[C@H](CC(N)=O)NC(=O)[C@H](CC(N)=O)NC(=O)[C@H](CC(C)C)NC(=O)[C@H](CCCNC(=N)N)NC(=O)[C@H](C(C)C)NC(=O)[C@H](CCCNC(=N)N)NC(=O)[C@H](C(C)C)NC(=O)[C@@H](N)CSSC[C@@H](C(=O)O)NC(=O)[C@H](C(C)C)NC(=O)[C@H](CCC(N)=O)NC(=O)[C@H](CC(C)C)NC(=O)[C@H]([C@@H](C)O)NC1=O [SySA-88] (H-CVRVRLNNRRRGLKITLQVC-OH; disulfide 1-20; N-terminus and C-terminus assumed)	32	8	32	8	
CC[C@H](C)[C@@H]1NC(=O)[C@H](CCCCN)NC(=O)[C@H](CC(C)C)NC(=O)[C@H](CCCNC(=N)N)NC(=O)[C@H](CCCNC(=N)N)NC(=O)[C@H](CCCNC(=N)N)NC(=O)[C@H](CCCNC(=N)N)NC(=O)[C@H](CC(N)=O)NC(=O)[C@H](CC(N)=O)NC(=O)[C@H](CC(C)C)NC(=O)[C@H](CCCNC(=N)N)NC(=O)[C@H](C(C)C)NC(=O)[C@H](CCCNC(=N)N)NC(=O)[C@H](C(C)C)NC(=O)[C@@H](N)CSSC[C@@H](C(=O)O)NC(=O)[C@H](C(C)C)NC(=O)[C@H](CCC(=O)O)NC(=O)[C@H](CC(C)C)NC(=O)[C@H](CO)NC1=O [SySA-78] (H-CVRVRLNNRRRRLKISLEVC-OH; disulfide 1-20; N-terminus and C-terminus assumed)	32	16	32	16	
CC[C@H](C)[C@@H]1NC(=O)[C@H](CCCNC(=N)N)NC(=O)[C@H](C(C)C)NC(=O)[C@H](CCCNC(=N)N)NC(=O)[C@H](CO)NC(=O)[C@H](CCCNC(=N)N)NC(=O)[C@H](CCCNC(=N)N)NC(=O)[C@H](CC(N)=O)NC(=O)[C@H](CC(N)=O)NC(=O)[C@H](C(C)C)NC(=O)[C@H](CCCNC(=N)N)NC(=O)[C@H]([C@@H](C)CC)NC(=O)[C@H]([C@@H](C)O)NC(=O)[C@H](C(C)C)NC(=O)[C@@H](N)CSSC[C@@H](C(=O)O)NC(=O)[C@H](C(C)C)NC(=O)[C@H](CCC(N)=O)NC(=O)[C@H](CC(C)C)NC(=O)[C@H](CO)NC1=O [SySA-63] (H-CVTIRVNNRRSRVRISLQVC-OH; disulfide 1-20; N-terminus and C-terminus assumed)	256	64	256	64	
CC[C@H](C)[C@@H]1NC(=O)[C@H](CCCNC(=N)N)NC(=O)[C@H](CC(C)C)NC(=O)[C@@H](N)CSSC[C@@H](C(=O)O)NC(=O)[C@H](C(C)C)NC(=O)[C@H](CCC(N)=O)NC(=O)[C@H](CC(C)C)NC(=O)[C@H](CO)NC(=O)[C@H](C(C)C)NC(=O)[C@H](CCCCN)NC(=O)[C@H](CC(C)C)NC(=O)CNC(=O)[C@H](CCCNC(=N)N)NC(=O)[C@H](CCCNC(=N)N)NC(=O)[C@H](CCCNC(=N)N)NC(=O)[C@H](CC(N)=O)NC(=O)[C@H](CC(N)=O)NC(=O)[C@H](CC(C)C)NC(=O)[C@H](CCCNC(=N)N)NC1=O [SySA-30] (H-CLRIRLNNRRRGLKVSLQVC-OH; disulfide 1-20; N-terminus and C-terminus assumed)	64	8	64	8	
CC[C@H](C)[C@@H]1NC(=O)[C@H](CCCNC(=N)N)NC(=O)[C@H](CC(C)C)NC(=O)[C@@H](N)CSSC[C@@H](C(=O)O)NC(=O)[C@H](C(C)C)NC(=O)[C@H](CCC(N)=O)NC(=O)[C@H](C(C)C)NC(=O)[C@H]([C@@H](C)O)NC(=O)[C@H]([C@@H](C)CC)NC(=O)[C@H](CCCNC(=N)N)NC(=O)[C@H](C(C)C)NC(=O)CNC(=O)CNC(=O)[C@H](CCCNC(=N)N)NC(=O)[C@H](CCCNC(=N)N)NC(=O)[C@H](CC(N)=O)NC(=O)[C@H](CC(N)=O)NC(=O)[C@H](C(C)C)NC(=O)[C@H](CCCNC(=N)N)NC1=O [SyRA-2] (H-CLRIRVNNRRGGVRITVQVC-OH; disulfide 1-20)					>256
CC[C@H](C)[C@@H]1NC(=O)[C@H](CCCNC(=N)N)NC(=O)[C@H]([C@@H](C)CC)NC(=O)[C@H](CCCNC(=N)N)NC(=O)[C@@H](N)CSSC[C@@H](C(=O)O)NC(=O)[C@H](CCC(=O)O)NC(=O)[C@H](C(C)C)NC(=O)[C@H](CCC(=O)O)NC(=O)[C@H](CC(C)C)NC(=O)[C@H](CCCNC(=N)N)NC(=O)[C@H](C(C)C)NC(=O)[C@H]([C@@H](C)O)NC(=O)CNC(=O)CNC(=O)[C@H](CCCNC(=N)N)NC(=O)[C@H](CC(=O)O)NC(=O)[C@H](CC(N)=O)NC(=O)[C@H](C(C)C)NC(=O)[C@H](CC(N)=O)NC1=O [SyRC-4] (H-CRIRINVNDRGGTVRLEVEC-OH; disulfide 1-20)					>256
CC(C)C[C@@H]1NC(=O)CNC(=O)[C@H](CCCNC(=N)N)NC(=O)[C@H](CCCNC(=N)N)NC(=O)[C@H](CCCNC(=N)N)NC(=O)[C@H](CC(N)=O)NC(=O)[C@H](CC(N)=O)NC(=O)[C@H](CC(C)C)NC(=O)[C@H](CCCNC(=N)N)NC(=O)[C@H](C(C)C)NC(=O)[C@H](CCCNC(=N)N)NC(=O)[C@H](C(C)C)NC(=O)[C@@H](N)CSSC[C@@H](C(=O)O)NC(=O)[C@H](C(C)C)NC(=O)[C@H](CCC(N)=O)NC(=O)[C@H](CC(C)C)NC(=O)[C@H]([C@@H](C)O)NC(=O)[C@H](C(C)C)NC(=O)[C@H](CCCCN)NC1=O [SySA-45] (H-CVRVRLNNRRRGLKVTLQVC-OH; disulfide 1-20; N-terminus and C-terminus assumed)	256	32	256	32	
CC(C)C[C@@H]1NC(=O)[C@H](CCCNC(=N)N)NC(=O)[C@H](C(C)C)NC(=O)[C@H](CCCNC(=N)N)NC(=O)[C@H](CC(C)C)NC(=O)[C@@H](N)CSSC[C@@H](C(=O)O)NC(=O)[C@H](C(C)C)NC(=O)[C@H](CCC(N)=O)NC(=O)[C@H](C(C)C)NC(=O)[C@H](CO)NC(=O)[C@H](C(C)C)NC(=O)[C@H](CCCCN)NC(=O)[C@H](C(C)C)NC(=O)[C@H](CCCNC(=N)N)NC(=O)[C@H](CCCNC(=N)N)NC(=O)CNC(=O)CNC(=O)[C@H](CC(N)=O)NC(=O)[C@H](CC(N)=O)NC1=O [SyRA-3] (H-CLRVRLNNGGRRVKVSVQVC-OH; disulfide 1-20)					> 256
CC[C@H](C)[C@@H]1NC(=O)[C@H](CC(N)=O)NC(=O)[C@H](C(C)C)NC(=O)[C@H](CCCCN)NC(=O)[C@H]([C@@H](C)CC)NC(=O)[C@H](CCCNC(=N)N)NC(=O)[C@@H](N)CSSC[C@@H](C(=O)O)NC(=O)[C@H](CCC(N)=O)NC(=O)[C@H](CC(C)C)NC(=O)[C@H](CCC(N)=O)NC(=O)[C@H](CC(C)C)NC(=O)[C@H](CCCCN)NC(=O)[C@H](C(C)C)NC(=O)[C@H](CCCNC(=N)N)NC(=O)[C@H](CCCNC(=N)N)NC(=O)[C@H](CCCNC(=N)N)NC(=O)CNC(=O)[C@H](CC(N)=O)NC(=O)[C@H](CC(N)=O)NC1=O [SySA-34] (H-CRIKVNINNGRRRVKLQLQC-OH; disulfide 1-20; N-terminus and C-terminus assumed)	128	32	128	32	
